Tested on: PC-3 PIP/flu tumor-bearing mice
Assay: Biodistribution studies in PC-3 PIP/flu tumor-bearing mice
Conditions: for Tumor-to-blood / Tumor-to-kidney / Tumor-to-liver: PC-3 PIP tumor

O=C(O)CCC(NC(=O)NC(CCCCNC(=O)C(Cc1ccc2ccccc2c1)NC(=O)C1CCC(CNC(=O)C(CCCCNC(=O)CCCc2ccc(I)cc2)NC(=O)CN2CCN(CC(=O)O)CCN(CC(=O)O)CCN(CC(=O)O)CC2)CC1)C(=O)O)C(=O)O (stereo not shown) [^177Lu-PSMA-ALB-03, metal not drawn]
Tumor-to-blood (1 h p.i.): 0.31 ± 0.04
Tumor-to-kidney (1 h p.i.): 0.48 ± 0.07
Tumor-to-liver (1 h p.i.): 1.64 ± 0.61
Blood (4 h p.i.): 24.3 ± 3.60 % IA/g
Bone (4 h p.i.): 2.47 ± 0.39 % IA/g
Heart (4 h p.i.): 8.54 ± 1.18 % IA/g
Intestines (4 h p.i.): 3.71 ± 1.09 % IA/g
Kidneys (4 h p.i.): 24.5 ± 4.38 % IA/g
Liver (4 h p.i.): 4.56 ± 1.18 % IA/g
Lung (4 h p.i.): 14.21 ± 3.49 % IA/g
Muscle (4 h p.i.): 2.04 ± 0.37 % IA/g
PC-3 PIP Tumor (4 h p.i.): 19.9 ± 0.79 % IA/g
PC-3 flu Tumor (4 h p.i.): 5.32 ± 1.06 % IA/g
Salivary glands (4 h p.i.): 5.02 ± 1.17 % IA/g
Spleen (4 h p.i.): 4.76 ± 1.12 % IA/g
Stomach (4 h p.i.): 2.86 ± 1.03 % IA/g
Tumor-to-blood (4 h p.i.): 0.83 ± 0.10
Tumor-to-kidney (4 h p.i.): 0.83 ± 0.14
Tumor-to-liver (4 h p.i.): 4.60 ± 1.34
Blood (8 h p.i.): 23.5 ± 0.74 % IA/g
Bone (8 h p.i.): 2.71 ± 0.21 % IA/g
Heart (8 h p.i.): 8.12 ± 0.46 % IA/g
Intestines (8 h p.i.): 3.70 ± 0.40 % IA/g
Kidneys (8 h p.i.): 28.8 ± 1.49 % IA/g
Liver (8 h p.i.): 4.87 ± 0.42 % IA/g
Lung (8 h p.i.): 12.21 ± 1.32 % IA/g
Muscle (8 h p.i.): 2.01 ± 0.10 % IA/g
PC-3 PIP Tumor (8 h p.i.): 31.0 ± 5.79 % IA/g
PC-3 flu Tumor (8 h p.i.): 5.98 ± 0.91 % IA/g
Salivary glands (8 h p.i.): 5.49 ± 0.59 % IA/g
Spleen (8 h p.i.): 4.10 ± 0.14 % IA/g
Stomach (8 h p.i.): 2.92 ± 0.17 % IA/g
Tumor-to-blood (8 h p.i.): 1.32 ± 0.29
Tumor-to-kidney (8 h p.i.): 1.07 ± 0.18
Tumor-to-liver (8 h p.i.): 6.38 ± 1.28
Blood (24 h p.i.): 17.3 ± 1.38 % IA/g
Bone (24 h p.i.): 2.02 ± 0.31 % IA/g
Heart (24 h p.i.): 6.60 ± 1.01 % IA/g
Intestines (24 h p.i.): 2.19 ± 0.23 % IA/g
Kidneys (24 h p.i.): 24.7 ± 1.85 % IA/g
Liver (24 h p.i.): 3.35 ± 0.26 % IA/g
Lung (24 h p.i.): 9.86 ± 0.57 % IA/g
Muscle (24 h p.i.): 1.61 ± 0.18 % IA/g
PC-3 PIP Tumor (24 h p.i.): 53.8 ± 5.61 % IA/g
PC-3 flu Tumor (24 h p.i.): 5.47 ± 0.67 % IA/g
Salivary glands (24 h p.i.): 4.69 ± 0.33 % IA/g
Spleen (24 h p.i.): 3.75 ± 0.21 % IA/g
Stomach (24 h p.i.): 1.39 ± 0.27 % IA/g
Tumor-to-blood (24 h p.i.): 3.13 ± 0.35
Tumor-to-kidney (24 h p.i.): 2.17 ± 0.06
Tumor-to-liver (24 h p.i.): 16.1 ± 1.75
Blood (48 h p.i.): 12.5 ± 3.78 % IA/g
Bone (48 h p.i.): 1.63 ± 0.56 % IA/g
Heart (48 h p.i.): 4.40 ± 1.18 % IA/g
Intestines (48 h p.i.): 1.73 ± 0.50 % IA/g
Kidneys (48 h p.i.): 22.6 ± 2.69 % IA/g
Liver (48 h p.i.): 2.53 ± 0.77 % IA/g
Lung (48 h p.i.): 7.45 ± 2.06 % IA/g
Muscle (48 h p.i.): 1.32 ± 0.41 % IA/g
PC-3 PIP Tumor (48 h p.i.): 72.3 ± 24.7 % IA/g
PC-3 flu Tumor (48 h p.i.): 5.69 ± 3.65 % IA/g
Salivary glands (48 h p.i.): 3.45 ± 1.09 % IA/g
Spleen (48 h p.i.): 3.79 ± 0.89 % IA/g
Stomach (48 h p.i.): 1.49 ± 0.48 % IA/g
Tumor-to-blood (48 h p.i.): 5.94 ± 1.53
Tumor-to-kidney (48 h p.i.): 3.17 ± 0.84
Tumor-to-liver (48 h p.i.): 29.0 ± 5.26
Blood (96 h p.i.): 7.37 ± 0.64 % IA/g
Bone (96 h p.i.): 1.07 ± 0.27 % IA/g
Heart (96 h p.i.): 3.15 ± 0.28 % IA/g
Intestines (96 h p.i.): 1.21 ± 0.26 % IA/g
Kidneys (96 h p.i.): 16.1 ± 1.69 % IA/g
Liver (96 h p.i.): 1.78 ± 0.03 % IA/g
Lung (96 h p.i.): 5.56 ± 0.54 % IA/g
Muscle (96 h p.i.): 0.91 ± 0.15 % IA/g
PC-3 PIP Tumor (96 h p.i.): 75.7 ± 2.46 % IA/g
PC-3 flu Tumor (96 h p.i.): 3.52 ± 0.54 % IA/g
Salivary glands (96 h p.i.): 2.19 ± 0.1 % IA/g
Spleen (96 h p.i.): 3.23 ± 0.53 % IA/g
Stomach (96 h p.i.): 0.91 ± .010 % IA/g
Tumor-to-blood (96 h p.i.): 10.3 ± 0.57
Tumor-to-kidney (96 h p.i.): 4.7 ± 0.38
Tumor-to-liver (96 h p.i.): 42.6 ± 1.90
Blood (144 h p.i.): 6.02 ± 0.60 % IA/g
Bone (144 h p.i.): 1.14 ± 0.23 % IA/g
Heart (144 h p.i.): 2.55 ± 0.25 % IA/g
Intestines (144 h p.i.): 0.88 ± 0.18 % IA/g
Kidneys (144 h p.i.): 11.2 ± 3.82 % IA/g
Liver (144 h p.i.): 1.50 ± 0.14 % IA/g
Lung (144 h p.i.): 4.99 ± 1.00 % IA/g
Muscle (144 h p.i.): 0.54 ± 0.07 % IA/g
PC-3 PIP Tumor (144 h p.i.): 68.9 ± 8.80 % IA/g
PC-3 flu Tumor (144 h p.i.): 2.77 ± 0.41 % IA/g
Salivary glands (144 h p.i.): 1.67 ± 0.27 % IA/g
Spleen (144 h p.i.): 2.94 ± 0.39 % IA/g
Stomach (144 h p.i.): 0.73 ± 0.10 % IA/g
Tumor-to-blood (144 h p.i.): 11.4 ± 0.47
Tumor-to-kidney (144 h p.i.): 6.44 ± 1.27
Tumor-to-liver (144 h p.i.): 46.0 ± 2.53
Blood (192 h p.i.): 5.29 ± 0.18 % IA/g
Bone (192 h p.i.): 0.83 ± 0.22 % IA/g
Heart (192 h p.i.): 2.08 ± 0.14 % IA/g
Intestines (192 h p.i.): 0.96 ± 0.03 % IA/g
Kidneys (192 h p.i.): 7.35 ± 0.92 % IA/g
Liver (192 h p.i.): 1.25 ± 0.20 % IA/g
Lung (192 h p.i.): 4.17 ± 0.68 % IA/g
Muscle (192 h p.i.): 0.62 ± 0.04 % IA/g
PC-3 PIP Tumor (192 h p.i.): 58.9 ± 12.4 % IA/g
PC-3 flu Tumor (192 h p.i.): 2.42 ± 0.23 % IA/g
Salivary glands (192 h p.i.): 1.55 ± 0.06 % IA/g
Spleen (192 h p.i.): 3.13 ± 0.90 % IA/g
Stomach (192 h p.i.): 0.78 ± 0.07 % IA/g
Tumor-to-blood (192 h p.i.): 11.1 ± 1.97
Tumor-to-kidney (192 h p.i.): 7.97 ± 0.70
Tumor-to-liver (192 h p.i.): 47.1 ± 2.44
